The values below are quoted from earlier work in US20170262578A1, “SYSTEM, METHOD AND SOFTWARE FOR ANALYSIS OF INTRACELLULAR SIGNALING PATHWAY ACTIVATION USING TRANSCRIPTOMIC DATA” (PATHWAY PHARMACEUTICALS LTD, priority 2015, published 2017).

Data set [1] concerns Metastatic Renal Cell Cancer. The note with it: for Serious adverse events: 108 from 359 Axitinib / 110 from 355 Sorafenib participants.
The test system of data set [2] is unresectable or metastatic renal cell carcinoma.
Data set [3] concerns Locally Advanced and/or Metastatic Renal Cell Carcinoma. The conditions noted are these: 230 from 554 Pazopanib / 224 from 548 Sunitinib participants.
Data set [4] has the same test system. The note with it: 68 from 186 Pazopanib / 73 from 177 Sunitinib participants.
Data set [5] has the same test system. The conditions noted are these: 76 from 290 participants.
The test system of data set [6] is Locally Recurrent or Metastatic Clear-Cell Renal Cell Carcinoma. The conditions noted are these: 74 from 225 participants.
Data set [7] concerns Metastatic Carcinoma of the Kidney Which Has Progressed on VEGF Receptor Tyrosine Kinase Inhibitor. The conditions noted are these: with Best Supportive Care.
Data set [8] deals with Metastatic or Unresectable Renal Cell Cancer (RCC).
The subject of data set [9] is Renal Cell Carcinoma.
Data set [10] has as its system Unresectable and/or Metastatic Renal Cell Cancer.
In data set [11] the test system is Metastatic Renal Cell Carcinoma (RCC).
The subject of data set [12] is Unresectable and/or Metastatic Renal Cell Carcinoma.
For data set [13] the test system is unchanged. This is another data set of the same source.
Data set [14] has as its system Cytokine-Refractory Metastatic Renal Cell Carcinoma.
Data set [15] deals with Advanced (First-Line) Renal Cell Cancer. The note with it: 45 of 119 participants.
Data set [16] has as its system Renal Cell Carcinoma. The note with it: 28 from 51 participants.
For data set [17], the system named is Metastatic Renal Cell Cancer.
Data set [18] concerns Cytokine-Refractory Metastatic Renal Cell Carcinoma. The note with it: 46 from 106 participants.
In data set [19] the test system is Advanced Renal Cell Carcinoma. The note with it: for Median overall response duration: 11 / 19 / 20 participants; for Median progression free survival / Median time to treatment failure: 207 / 209 / 210 participants; for Median overall survival: 207 Interferon-α / 209 Temsirolimus / 210 combination participants; for Clinical benefit (complete, partial response or stable disease) / Complete or partial response: from 207 / 209 / 210 participants.

[20] abbreviates: first intervention period, 5 / 8 participants.
[21] abbreviates: first intervention period, from 97 / 92 participants.

Like-named read-outs stand apart in the source and are kept apart here.

With `CNC(=O)c1ccccc1Sc1ccc2c(/C=C/c3ccccn3)n[nH]c2c1` [Axitinib], in data set [1], the Serious adverse events is 30.08%.

As for `CN1CC[C@H](c2c(O)cc(O)c3c(=O)cc(-c4ccccc4Cl)oc23)[C@H](O)C1` [Flavopiridol], the stable disease in data set [2] (14 among 34 participants) is 41%. Besides, in data set [2] (34 participants), the “CR+PR” value is given as 12%, the Median overall survival is given as 9 months and the “probability of not failing treatment by 6 months” value is 21%. Moreover, in data set [2] (among 34 participants), the complete response was 1 participants and the partial response is recorded as 3 participants. Also, the Toxicity of treatment result in data set [2] (in vivo) is on record as “moderate”.

For the compound `Cc1ccc(Nc2nccc(N(C)c3ccc4c(C)n(C)nc4c3)n2)cc1S(N)(=O)=O` [Pazopanib], the Serious adverse events in data set [3] was 41.52%; in data set [4], 36.56%; in data set [5], 26.21%; in data set [6], 32.89%.

For `CO[C@H]1C[C@@H]2CC[C@@H](C)[C@@](O)(O2)C(=O)C(=O)N2CCCC[C@H]2C(=O)O[C@H]([C@H](C)C[C@@H]2CC[C@@H](OCCO)[C@H](OC)C2)CC(=O)[C@H](C)/C=C(\C)[C@@H](O)[C@@H](OC)C(=O)[C@H](C)C[C@H](C)/C=C/C=C/C=C/1C` [RAD001, Everolimus], in data set [7] (135 from 274 participants), the Serious adverse events is on record as 49.27%. In [7] (277 participants), the Median overall survival is 13.57 months and the “Median progression free survival” value was 4.9 months. Moreover, the “Complete or partial response” value in [7] (from 277 participants) is recorded as 1.8%.

Take `CNC(=O)c1cc(Oc2ccc(NC(=O)Nc3ccc(Cl)c(C(F)(F)F)c3)c(F)c2)ccn1` [Regorafenib]: the “Median overall response duration” value in data set [8] (19 participants) was 428 days. In data set [8] (25 participants), the “Median duration of stable disease” value is given as 119 days. The Serious adverse events in [8] (30 from 49 participants) was 61.22%. Also, in [8] (49 participants), the “Median progression free survival” value was 335 days. In addition, in data set [8] (among 48 participants), the partial response is 39.6% and the stable disease was 41.7%.

On to `CNC(=O)c1cc(Oc2ccc(NC(=O)Nc3ccc(Cl)c(C(F)(F)F)c3)cc2)ccn1` [Sorafenib], for which the Serious adverse events in data set [1] was 30.99%; in the data set with Renal Cell Carcinoma [9] (34 of 95 participants) it was 35.79%; in data set [10] (154 from 451 participants), 34.15%; in data set [11] (4 from 47 participants) it was 8.51%; in [12] (12 from 39 participants), 30.77%; in data set [13] (first intervention period, 47 from 97 / 36 from 90 participants) it was 48.45%. Also, the Serious adverse events in data set [13] (second intervention period, 14 from 49 / 30 from 61 participants) was 28.57%. The “Median progression free survival” value was 4.7 months in data set [1] (361 Axitinib / 362 Sorafenib participants), 386 days in the data set with Renal Cell Carcinoma [9] (94 participants), 167 days in [10] (384 participants) and 5.5 months in [12] (39 participants). The “Median duration of overall response” value in the data set on Renal Cell Carcinoma [9] (94 participants) is 419 days. The “Median time to response” value in the data set on Renal Cell Carcinoma [9] (94 participants) is recorded as 84 days. The partial response in the data set with Renal Cell Carcinoma [9] (among 94 participants) is on record as 25 participants; in [10] (from 335 participants), 2.1%; in data set [12] (from 39 participants), 5 participants. Also, the stable disease with Renal Cell Carcinoma [9] (among 94 participants) was 64 participants; in data set [10] (from 335 participants), 77.9%; in [12] (from 39 participants), 27 participants. The “Number of participants who died” value with Renal Cell Carcinoma [9] (from start of treatment of the first subject until 45 months later, from 94 participants) is 43 participants. The Median overall survival in data set [10] (451 participants) is 542 days; in data set [11] (47 participants), 16 months; in data set [12] (39 participants) it was 7.8 months. Further, in data set [11] (14 participants), the “Duration of overall response (tumor burden reduction)” value is listed as 7.1 months. Also, the “Median time to progression” value is given as 4.4 months in data set [11] (47 participants) and 5.5 months in data set [12] (39 participants). For the same compound, the “Reduction in tumor burden equal to or larger than 5%” value in data set [11] (at 8 weeks (2 cycles of treatment), % from 47 participants) is 30%. Further, the “Median overall response duration” value in data set [12] (5 participants) is 7.4 months. Moreover, in data set [12] (5 participants), the “Median time to objective response” value is 1.4 months. In addition, the progressive disease in data set [12] (from 39 participants) is on record as 6 participants. In data set [13] (setting [20]), the “Median duration of response according to the Independent Radiological Review” value was 7.5 months. In addition, in data set [13] (setting [20]), the “Median time to response according to the Independent Radiological Review” value is on record as 1.8 months. Moreover, the “partial response (Independent Central Review)” value in data set [13] (setting [21]) was 5 participants. For the same compound, the “stable disease (Independent Central Review)” value in data set [13] (setting [21]) is listed as 72 participants. In data set [13] (second intervention period), the “Median progression-free survival according to the Investigator Assessment” value is on record as 4.5 months. The “stable disease (Investigator Assessment)” value in data set [13] (second intervention period, from 49 / 61 participants) is recorded as 25 participants.

As for `CCN(CC)CCNC(=O)c1c(C)[nH]c(/C=C2\C(=O)Nc3ccc(F)cc32)c1C` [Sunitinib], the Serious adverse events is recorded as 40.88% in data set [3]; 41.24% in data set [4]; 21 participants in data set [14] (AM dose group, out of 54 participants); 20 participants in data set [14] (PM dose group, from 53 participants); 37.82% in data set [15]; 54.90% with Renal Cell Carcinoma [16]. The Serious adverse events in data set [17] (Sunitinib 37.5 mg group, 54 from 143 participants) is 37.76%; in data set [17] (Sunitinib 50 mg group, 50 from 146 participants) it was 34.25%; in data set [18] it was 43.40%.

On to `CO[C@H]1C[C@@H]2CC[C@@H](C)[C@@](O)(O2)C(=O)C(=O)N2CCCC[C@H]2C(=O)O[C@H]([C@H](C)C[C@@H]2CC[C@@H](OC(=O)C(C)(CO)CO)[C@H](OC)C2)CC(=O)[C@H](C)/C=C(\C)[C@@H](O)[C@@H](OC)C(=O)[C@H](C)C[C@H](C)/C=C/C=C/C=C/1C` [Temsirolimus], for which, in data set [19], the “Median overall response duration” value was 11.1 months, the “Median progression free survival” value is listed as 5.6 months, the “Median time to treatment failure” value was 3.7 months and the Median overall survival is given as 10.9 months. Besides, in data set [19], the “Clinical benefit (complete, partial response or stable disease)” value is 34% and the “Complete or partial response” value is given as 9.1%. For the same compound, in data set [19] (99 from 200 / 82 from 208 / 122 from 208 participants), the Serious adverse events is given as 39.42%.

Take Interferon-α: in data set [19], the “Median overall response duration” value is reported as 7.4 months, the “Median progression free survival” value is reported as 3.2 months, the “Median time to treatment failure” value was 1.9 months and the Median overall survival is reported as 7.3 months. Also, in [19], the “Clinical benefit (complete, partial response or stable disease)” value was 16.4% and the “Complete or partial response” value is 5.3%. Moreover, the Serious adverse events in data set [19] (in vivo) is listed as 49.5%.
